Results reported in patent publication US20250235453A1, “TRIAZOLOPYRIDAZINE COMPOUNDS USEFUL AS RAC1 INHIBITORS” (Revere Pharmaceuticals, priority 2021, published 2025).

Biological target: T1, Rac1 (Homo sapiens, UniProt P63000)
T1 construct: His (N)
Experiment: Rac Activation AlphaScreen Assay (Rac1 AS)
Assay type: biochemical
Conditions: Rac1 AS assay, dose leading to 50% disruption of complex; read-out: IC50
Protocol: The IC50 values reported in Tables 1-6 were obtained from the Rae Activation AlphaScreen Assay (Rac1 AS) assay described in subsection 2 under the section entitled “In Vitro Assays”. “†” represents an IC50 of greater than 100 uM; “††” represents an IC50 of greater than 10 uM and less than 50 uM; and “†††” represents an IC50 of less than 10 uM. “POC” means percent of control. […] Lower POC values reflect greater inhibition. “NT” means not tested.
2. Rac Activation AlphaScreen Assay (Rac1 AS)
AlphaScreen® assays were performed in 96-well microplates in a final reaction volume of 60 μL. Recombinant His-Rac1, recombinant GST-PBD (PAK Binding Domain), donor and acceptor beads (PerkinElmer), and inhibitors were incubated in exchange buffer (20 mM Tris pH 7.5, 50 mM NaCl, 1 mM MgCl2, 1 mM EDTA, 500 nM GTPyS (guanosine 5′-[Y-thio]triphosphate)) at 37° C. Readings were performed on a Tecan M1000 pro microplate reader after 1 hour. Data was analyzed using the GraphPad Prism software (GraphPad Software, Inc.), and IC50 (dose leading to 50% disruption of complex) was calculated from the dose-response curves.

| SMILES | IC50 |
| --- | --- |
| O=C(Cc1ccc(Cl)nc1)Nc1ccc(-c2ccc3nnc(-c4ccccn4)n3n2)cc1 [Compound 21] | 10 to 50 µM |
| COc1cccc(CC(=O)Nc2cccc(-c3ccc4nnc(-c5cccnc5)n4n3)c2)c1 [Compound 46] | < 10 µM |
| COc1ccc(CS(=O)(=O)Nc2cccc(-c3ccc4nnc(-c5cccnc5)n4n3)c2)c(OC)c1 [Compound 108] | < 10 µM |
| O=C(Nc1cccc(-c2ccc3nnc(-c4cccnc4)n3n2)c1)c1ccc2ccccc2c1 [Compound 49] | 10 to 50 µM |
| Cc1ccc(-c2nnc3ccc(-c4cccc(NC(=O)c5cccc(F)c5)c4)nn23)o1 [Compound 84] | < 10 µM |
| Cc1ccc(-c2nnc3ccc(-c4cccc(NC(=O)c5ccc(F)c(C)c5)c4)nn23)o1 [Compound 92] | < 10 µM |
| Cc1ccc(CS(=O)(=O)Nc2cccc(-c3ccc4nnc(-c5cccnc5)n4n3)c2)s1 [Compound 60] | < 10 µM |
| O=C(Cc1cccc([N+](=O)[O-])c1)Nc1ccc(-c2ccc3nnc(-c4ccncc4)n3n2)cc1 [Compound 17] | 10 to 50 µM |
| O=S(=O)(Cc1cccc(F)c1)Nc1cccc(-c2ccc3nnc(-c4cccnc4)n3n2)c1 [Compound 63] | < 10 µM |
| O=C(Cc1ccc(Cl)cc1)Nc1ccc(-c2ccc3nnc(-c4ccncc4)n3n2)cc1 [Compound 7] | > 100 µM |
| Cc1ccc(-c2nnc3ccc(-c4cccc(NC(=O)c5cccc(SC(C)C)c5)c4)nn23)o1 [Compound 88, 3-(isopropylthio)-N-(3-(3-(5-methylfuran-2-yl)-[1,2,4]triazolo[4,3-b]pyridazin-6-yl)phenyl)benzamide] | < 10 µM |
| Cc1ccc(-c2nnc3ccc(-c4cccc(NC(=O)c5ccc(F)c(CCC(C)C)c5)c4)nn23)o1 [Compound 110] | < 10 µM |
| Cc1ccc(-c2nnc3ccc(-c4cccc(NC(=O)c5ccc(F)cc5)c4)nn23)o1 [Compound 80, 4-fluoro-N-(3-(3-(5-methylfuran-2-yl)-[1,2,4]triazolo[4,3-b]pyridazin-6-yl)phenyl)benzamide] | < 10 µM |
| O=S(=O)(Cc1ccccc1)Nc1ccc(-c2ccc3nnc(-c4ccccn4)n3n2)cc1 [Compound 33] | < 10 µM |
| O=C(Cc1ccc(Cl)cc1)Nc1cccc(-c2ccc3nnc(-c4cccnc4)n3n2)c1 [Compound 52] | < 10 µM |
| O=C(Cc1cccc(F)c1)Nc1ccc(-c2ccc3nnc(-c4cccs4)n3n2)cc1 [Compound 24] | < 10 µM |
| COc1cccc(CC(=O)Nc2ccc(-c3ccc4nnc(-c5cccs5)n4n3)cc2)c1 [Compound 25] | 10 to 50 µM |
| O=C(Cc1ccc(F)cc1)Nc1ccc(-c2ccc3nnc(-c4cccs4)n3n2)cc1 [Compound 26] | < 10 µM |
| O=S(=O)(Cc1ccc(F)cc1F)Nc1cccc(-c2ccc3nnc(-c4cccnc4)n3n2)c1 [Compound 56] | < 10 µM |
| Cc1ccc(-c2nnc3ccc(-c4cccc(NC(=O)c5cccc(Br)c5)c4)nn23)o1 [Compound 83] | < 10 µM |
| CCc1cc(C(=O)Nc2cccc(-c3ccc4nnc(-c5ccc(C)o5)n4n3)c2)ccc1F [Compound 93, 3-ethyl-4-fluoro-N-(3-(3-(5-methylfuran-2-yl)-[1,2,4]triazolo[4,3-b]pyridazin-6-yl)phenyl)benzamide] | < 10 µM |
| Cc1ccccc1CC(=O)Nc1ccc(-c2ccc3nnc(-c4ccncc4)n3n2)cc1 [Compound 13] | 10 to 50 µM |
| O=C(Cc1cccs1)Nc1ccc(-c2ccc3nnc(-c4cccnc4)n3n2)cc1 [Compound 18] | 10 to 50 µM |
| O=C(Cc1ccc(F)cc1)Nc1ccc(-c2ccc3nnc(-c4ccncc4)n3n2)cc1 [Compound 12] | < 10 µM |
| Cc1cc(C)cc(CC(=O)Nc2ccc(-c3ccc4nnc(-c5ccncc5)n4n3)cc2)c1 [Compound 11] | 10 to 50 µM |
| O=C(Cc1cccs1)Nc1cccc(-c2ccc3nnc(-c4cccnc4)n3n2)c1 [Compound 51] | < 10 µM |
| CSc1cc(C(=O)Nc2cccc(-c3ccc4nnc(-c5ccc(C)o5)n4n3)c2)ccc1F [Compound 86] | < 10 µM |
| Cc1ccc(-c2nnc3ccc(-c4cccc(NC(=O)c5cnco5)c4)nn23)o1 [Compound 109] | < 10 µM |
